“Also recorded” adds a separate entry of the source.
Tests used:
PAS-B domain of HIF-1α = target: T1, PAS-B domain of HIF-1α (Homo sapiens, UniProt Q16665); assay: Isothermal titration calorimetry, PAS-B; type: binding; conditions: ITC, 25 °C, pH 7.5, 10 µM PAS-B
T1 construct: Per-ARNT-Sim-B (PAS-B, amino acids 235–350) domains; His (N); made in house; host or cells: E. coli BL21(DE3)

[1] = test system: endogenous HIF-1α/HIF-1β interaction in MCF-7 cells; assay: In situ proximity ligation assay (PLA), MCF-7; type: cell-based; conditions: 100 μM, MCF-7, hypoxia (1% O2) 4 h
Excerpt: The effect of P1 on the endogenous HIF-1α/HIF-1β interaction in intact cells was directly probed using an in situ proximity ligation assay (PLA);[30] primary antibodies (HIF-1α and HIF-1β here) raised in different species are bound by specific secondary antibodies that are tagged with a short DNA strand. The DNA on the interacting PLA probes forms a mini-plasmid that is amplified and bound by a red fluorescent dye. The HIF-1α/HIF-1β interaction is thus visualized as red dots in the DAPI-stained nuclei of MCF-7 and U2OS cells (Figure 4). We observed an increase in PLA signal in MCF-7 cells incubated in hypoxia (1% O2) for 4 h, indicating the expected formation of the HIF-1 dimer in hypoxia (Figure 4, panel 1 versus panel 2). […] The observed effect is not due to a reduction in HIF-1α by P1 (Western blot inset in Figure 4) and thus may be solely attributed to disruption of HIF-1α/HIF-1β dimers.
(§1) Cells were treated with the stated concentrations of inhibitor (P1, P2, or P3) and incubated in normoxia for 4 h, followed by incubation in a hypoxic environment. All manipulation of cell pellets (e.g., lysis, mRNA, and protein extraction) was conducted in a hypoxic environment.
Duolink proximity ligation assay was conducted using the in situ PLA Kit (O-Link Bioscience, Uppsala, Sweden) according to the manufacturer’s instructions. […]

[2] = test system: VEGF mRNA in hypoxic U2OS cells; assay: VEGF mRNA qPCR, U2OS; type: cell-based, human; conditions: hypoxia 16 h, 100 μM
Method: as §1
Total RNA was extracted from MCF-7 and U2OS cells using RNeasy Mini Kit (74104, QIAGEN) and quantified using a Nanodrop ND-1000 spectrophotometer. Complementary DNA was synthesized in a 20 μL reaction containing 1 μg of total RNA, using qScript cDNA SuperMix (95048-100, Quanta Biosciences) according to the manufacturer’s instructions. Quantitative real-time PCRs were performed using Universal Taqman PCR master mix (Applied Biosystems) >and the Taqman gene expression assay of interest (Applied Biosystems) on an ABI StepOnePlus Real-Time PCR system (Applied Biosystems). Expression assays used in this study were HIF-1α (00936376_m1), VEGF-A (Hs00173626_m1), CAIX (Hs00154208_m1), LOX (Hs00942480_m1), HIF2α (Hs01026149_m1), CITED2 (Hs01897804_s1), and 18S (Hs99999901_m1). All expression values were normalized using expression of 18S.

T1 sequence (Q16665 235-350): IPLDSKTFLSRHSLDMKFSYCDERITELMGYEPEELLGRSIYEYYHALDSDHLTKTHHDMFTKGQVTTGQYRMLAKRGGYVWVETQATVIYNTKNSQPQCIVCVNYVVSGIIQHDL

Substance: Tat-cyclo-CRLMVL (head to tail) [P2, cyclo-CRLMVL tagged with Tat peptide via a disulfide bond; used as negative control]
- binding to PAS-B domain (PAS-B domain of HIF-1α): no binding; also recorded: did not bind
- HIF-1 PLA signal [1]: did not have any effect on the PLA signal
- VEGF mRNA [2]: had no effect

Reference: publication PMC3715890, “A Cyclic Peptide Inhibitor of HIF-1 Heterodimerization That Inhibits Hypoxia Signaling in Cancer Cells” (Journal of the American Chemical Society, 2013)
